Key:
[1] = target: T1, fibrinogen (Homo sapiens, UniProt P02671+P02675+P02679); test: Gel retardation study with fibrinogen; format: binding
T1 sequence (P02671 20-629 limits assumed): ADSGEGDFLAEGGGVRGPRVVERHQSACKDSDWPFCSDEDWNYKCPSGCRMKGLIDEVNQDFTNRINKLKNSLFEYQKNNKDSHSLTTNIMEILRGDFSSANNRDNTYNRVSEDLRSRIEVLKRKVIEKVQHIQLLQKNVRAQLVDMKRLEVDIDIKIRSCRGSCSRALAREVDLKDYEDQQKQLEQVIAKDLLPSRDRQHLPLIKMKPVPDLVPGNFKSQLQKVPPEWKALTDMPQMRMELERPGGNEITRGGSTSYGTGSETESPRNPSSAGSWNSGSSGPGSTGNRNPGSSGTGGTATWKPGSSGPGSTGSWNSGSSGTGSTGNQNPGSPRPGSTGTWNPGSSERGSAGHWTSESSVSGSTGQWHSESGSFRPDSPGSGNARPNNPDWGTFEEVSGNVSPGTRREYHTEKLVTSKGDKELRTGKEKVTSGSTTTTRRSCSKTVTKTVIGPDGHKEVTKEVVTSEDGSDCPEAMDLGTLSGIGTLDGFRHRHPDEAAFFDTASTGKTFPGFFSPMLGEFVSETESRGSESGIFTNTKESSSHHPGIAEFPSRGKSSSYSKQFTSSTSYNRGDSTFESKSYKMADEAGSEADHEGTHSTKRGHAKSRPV
T1 sequence (P02675 31-491): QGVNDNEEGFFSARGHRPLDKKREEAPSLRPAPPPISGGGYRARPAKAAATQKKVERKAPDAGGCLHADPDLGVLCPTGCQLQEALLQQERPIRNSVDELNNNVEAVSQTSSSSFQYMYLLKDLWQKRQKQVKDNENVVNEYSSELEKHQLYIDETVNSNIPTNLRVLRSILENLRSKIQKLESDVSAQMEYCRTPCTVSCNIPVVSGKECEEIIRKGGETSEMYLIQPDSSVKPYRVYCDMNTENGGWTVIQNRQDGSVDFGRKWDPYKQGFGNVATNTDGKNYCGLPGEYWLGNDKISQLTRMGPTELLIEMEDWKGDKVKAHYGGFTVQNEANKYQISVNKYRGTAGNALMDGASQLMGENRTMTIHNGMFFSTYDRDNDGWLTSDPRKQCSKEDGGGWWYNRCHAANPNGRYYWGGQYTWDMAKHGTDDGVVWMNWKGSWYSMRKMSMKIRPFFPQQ
T1 sequence (P02679 27-453): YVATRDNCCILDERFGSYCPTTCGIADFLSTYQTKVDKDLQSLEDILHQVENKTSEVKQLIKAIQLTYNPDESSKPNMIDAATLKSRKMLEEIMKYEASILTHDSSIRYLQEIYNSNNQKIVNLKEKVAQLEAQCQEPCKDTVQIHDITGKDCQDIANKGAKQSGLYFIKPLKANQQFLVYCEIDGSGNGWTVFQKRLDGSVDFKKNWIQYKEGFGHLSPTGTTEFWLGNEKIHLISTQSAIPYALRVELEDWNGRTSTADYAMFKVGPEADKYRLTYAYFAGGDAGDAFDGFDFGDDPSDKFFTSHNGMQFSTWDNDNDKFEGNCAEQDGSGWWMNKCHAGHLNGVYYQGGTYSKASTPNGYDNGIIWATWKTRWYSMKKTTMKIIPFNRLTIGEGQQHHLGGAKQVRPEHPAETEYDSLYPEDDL
Method: (§1) Twenty (20) μg EB, hEB, hEB-platin, or hEB-DTG were mixed with or without various amounts of BSA, globulin, fibrinogen or FBS in 200 μL saline water, then 40 μL of the mixed solution were loaded to 1.5 % agarose gel and run under 120 V for 30 min.

[2] = tested on: globulin; test: Gel retardation study with globulin; format: binding
Method: as §1

[3] = Distribution in LN tissue and cells in LNs after i.v. injection (fluorescence microscopy, flow cytometry); format: in vivo
Method: Five (5) μM/kg EB, hEB or hEB-DTG were i.v. injected into mice pretreated intraperitoneally with or without 2.5 mg/kg LPS for 24 h. After 24 h, LNs from different sites were collected and their signals of EB were checked under fluorescent microscopy. To evaluate the EB signals in various types of cells, LNs were disrupted mechanically using scissors, digested with a mixture of deoxyribonuclease I (0.3 mg/mL, Sigma-Aldrich) and TL Liberase (0.25 mg/mL, Roche, IN, USA) in serum-free RPMI-1640 at 37 °C for 30 min, and dispersed through a 40 μm cell strainer (BD Biosciences, CA, USA). After red blood cell lysis, live/dead cell discrimination was performed using a Zombie NIR Fixable Viability Kit (BioLegend, CA, USA, dilution: 1/1000) at 4 °C for 30 min in DPBS. Surface staining was performed at 4 °C for 30 min in FACS staining buffer (1 × phosphate-buffered saline/5 % FBS/0.5 % sodium azide) containing designated antibody cocktails (PerCP anti-mouse CD45 antibody, Brilliant Violet 785 anti-mouse CD4 antibody, FITC anti-mouse CD8 antibody, APC anti-mouse CD11b antibody, APC/Cyanine7 anti-mouse F4/80 antibody, Pacific Blue anti-mouse CD19 antibody and AF647 anti-mouse CD27 antibody; dilution: 1/200 for all antibodies). Flow cytometry was performed with LSRII (BD Biosciences) and Aurora (Cytek Biosciences, CA, USA) instruments and analyzed by FlowJo (BD Biosciences). The EB signals in each type of cell were quantified as mentioned above.

[4] = target: BSA (Bos taurus, UniProt P02769); test: Gel retardation study with BSA; format: binding, bovine; settings: BSA, weight ratio
Method: as §1

[5] = tested on: HEK293T cells; test: Cellular uptake study in vitro (flow cytometry); format: cell-based; settings: in words
Method: HEK293T or HUVEC cells were seeded to 6-well plates. After overnight incubation, the culture medium was replaced by fresh medium containing 10 μM EB and 2, 5, or 20 mg/mL BSA for incubation of 0.5, 1 or 3 h at 37 °C. Later, cells were washed with cold PBS and fixed with PBS containing 4 % (w/v) formaldehyde.
Cellular uptake of different treatments was quantified by flow cytometry. Fluorescence was examined at an excitation wavelength of 532 nm and an emission wavelength of 660 nm. 10 × 10^4 events were collected for each sample.

[6] = tested on: HUVEC monolayer; test: Transwell study: transport across a HUVEC monolayer, flow cytometry of HEK293T cells in lower chamber; format: cell-based; settings: 8 h; for EB transport across a HUVEC monolayer: EB-positive cells in the lower chamber: Fig. 1J
Method: HEK293T were seeded to 6-well plates as lower chamber and HUVEC were seeded to Corning (NY, USA) 6-well plate inserts (0.4 μm pore size) in another plate as upper chamber, respectively. After incubation and the cell layer on the upper chamber became intact, the culture medium in the inserts was replaced by fresh medium containing 0, 5 or 20 μg/mL filipin and 0 or 10 μg/mL LPS for overnight incubation. Next, the culture medium in the inserts was replaced with fresh medium containing 10 μM EB, hEB or hEB-DTG and 2 mg/mL BSA, then the inserts were moved to the wells cultured with HEK293T cells for incubation of 8 h at 37 °C. After that, HEK293T cells in the lower chambers were washed with cold PBS.
EB signals in HEK293T cells were quantified by flow cytometry. Fluorescence was examined at an excitation wavelength of 532 nm and an emission wavelength of 660 nm. 10 × 10^4 events were collected for each sample.

[7] = tested on: albumin; design: method as in PMID 27682195; settings: cited from earlier work

Chain of BSA (P02769 25-607): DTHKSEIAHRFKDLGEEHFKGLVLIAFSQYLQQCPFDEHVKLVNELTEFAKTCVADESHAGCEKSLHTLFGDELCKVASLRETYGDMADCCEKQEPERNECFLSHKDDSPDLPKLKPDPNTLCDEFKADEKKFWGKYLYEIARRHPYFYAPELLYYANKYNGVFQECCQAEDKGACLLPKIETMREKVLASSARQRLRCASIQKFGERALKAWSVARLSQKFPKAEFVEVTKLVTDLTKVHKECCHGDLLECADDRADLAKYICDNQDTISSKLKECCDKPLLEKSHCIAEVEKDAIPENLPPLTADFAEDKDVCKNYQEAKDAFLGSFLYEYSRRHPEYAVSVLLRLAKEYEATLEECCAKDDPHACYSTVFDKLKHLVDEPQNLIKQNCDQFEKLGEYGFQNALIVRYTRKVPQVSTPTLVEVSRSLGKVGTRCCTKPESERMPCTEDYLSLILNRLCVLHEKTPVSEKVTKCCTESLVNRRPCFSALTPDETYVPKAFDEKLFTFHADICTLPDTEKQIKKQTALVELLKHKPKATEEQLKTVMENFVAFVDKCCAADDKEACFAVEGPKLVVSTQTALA

Cc1cc(-c2ccc(/N=N/c3ccc4c(S(=O)(=O)O)cc(S(=O)(=O)O)c(N)c4c3O)c(C)c2)ccc1/N=N/c1ccc2c(S(=O)(=O)O)cc(S(=O)(=O)O)c(N)c2c1O [EB, Evans Blue]
binding to fibrinogen [1]: no detectable binding
binding to globulin [2]: no detectable binding
fluorescence signal in LNs ([3]; 24 h post i.v. injection, in words): Robust EB fluorescence was detected in all LNs examined
EB signals in LNs of LPS-treated vs naive mice ([3]; 24 h post-injection, LPS 2.5 mg/kg i.p.): not significantly different
uptake by immune cell populations in LNs ([3]; flow cytometry, in words): significant EB signal across multiple cell populations
albumin/EB weight ratio at which the majority of EB molecules were bound to albumin [4]: ≥ 25
cellular uptake [5]: efficient and albumin-dependent
EB transport across a HUVEC monolayer: EB-positive cells in the lower chamber ([6]; CT (no pretreatment)): 98.8%
EB transport across a HUVEC monolayer: EB-positive cells in the lower chamber ([6]; HUVEC pretreated with LPS + filipin): 9.66%
EB transport across a HUVEC monolayer: EB-positive cells in the lower chamber ([6]; HUVEC pretreated with LPS): 98.7%
EB transport across a HUVEC monolayer: EB-positive cells in the lower chamber ([6]; HUVEC pretreated with filipin): 5.04%
transport across endothelial cell monolayer ([6]; albumin-bound, in words): strong fluorescent signals were detected in the lower chamber
EB molecules bound per albumin molecule [7]: up to 14
